Results reported in ChEMBL document CHEMBL1131642, “Synthesis and antibacterial activity of O-methyl derivatives of azalide antibiotics: I. 4", 11 and 12-OMe derivatives via direct methylation” (1998).
Values after ≈ are worked out from the molar mass of the structure shown.

Experiments:
Format in all cases: functional
Bacillus subtilis = test: Minimum inhibitory concentration against macrolide susceptible strains of Bacillus subtilis (MB5586)
Enterococcus faecalis = test: Minimum inhibitory concentration against macrolide susceptible strain of Enterococcus faecalis (MB5407)
Streptococcus pyogenes = test: Minimum inhibitory concentration against macrolide susceptible strain of Streptococcus pyogenes (MB2874)
Staphylococcus aureus = test: Minimum inhibitory concentration against macrolide susceptible strain of Staphylococcus aureus (MB2865)
Streptococcus pneumoniae = test: Minimum inhibitory concentration against macrolide susceptible strain of Streptococcus pneumoniae (MB3957)
Enterococcus faecium = test: Minimum inhibitory concentration against macrolide susceptible strain of Enterococcus faecium (MB5516)

SMILES | MIC (Bacillus subtilis) [µg/mL] | MIC (Enterococcus faecalis) [µg/mL] | MIC (Streptococcus pyogenes) [µg/mL] | MIC (Staphylococcus aureus) [µg/mL] | MIC (Streptococcus pneumoniae) [µg/mL] | MIC (Enterococcus faecium) [µg/mL]
CC[C@H]1OC(=O)[C@H](C)[C@@H](O[C@H]2C[C@@](C)(OC)[C@@H](OC)[C@@H](C)O2)[C@H](C)[C@@H](O[C@@H]2O[C@H](C)C[C@@H](N(C)C)[C@H]2O)[C@](C)(O)C[C@@H](C)N(C)C[C@H](C)[C@@H](O)[C@]1(C)O | 4 (≈ 5.24 µM) | 8 (≈ 10.5 µM) | 0.03 (≈ 0.0393 µM) | 8 (≈ 10.5 µM) | 0.5 (≈ 0.655 µM) | 2 (≈ 2.62 µM)
CC[C@H]1OC(=O)[C@H](C)[C@@H](O[C@H]2C[C@@](C)(OC)[C@@H](OC)[C@@H](C)O2)[C@H](C)[C@@H](O[C@@H]2O[C@H](C)C[C@@H](N(C)C)[C@H]2O)[C@](C)(O)C[C@@H](C)N(C)C[C@H](C)[C@@H](OC)[C@]1(C)O | 16 (≈ 20.6 µM) | 32 (≈ 41.2 µM) | 0.5 (≈ 0.643 µM) | 32 (≈ 41.2 µM) | 2 (≈ 2.57 µM) | 16 (≈ 20.6 µM)
CC[C@H]1OC(=O)[C@H](C)[C@@H](O[C@H]2C[C@@](C)(OC)[C@@H](OC)[C@@H](C)O2)[C@H](C)[C@@H](O[C@@H]2O[C@H](C)C[C@@H](N(C)C)[C@H]2O)[C@](C)(O)C[C@@H](C)N(C)C[C@H](C)[C@@H](O)[C@]1(C)OC | 4 (≈ 5.15 µM) | 16 (≈ 20.6 µM) | 0.25 (≈ 0.322 µM) | 8 (≈ 10.3 µM) | 1 (≈ 1.29 µM) | 4 (≈ 5.15 µM)
CC[C@H]1OC(=O)[C@H](C)[C@@H](O[C@H]2C[C@@](C)(OC)[C@@H](OC)[C@@H](C)O2)[C@H](C)[C@@H](O[C@@H]2O[C@H](C)C[C@@H](N(C)C)[C@H]2O)[C@](C)(O)C[C@@H](C)CN(C)[C@H](C)[C@@H](OC)[C@]1(C)OC | 8 (≈ 10.1 µM) | 16 (≈ 20.2 µM) | 0.25 (≈ 0.316 µM) | 8 (≈ 10.1 µM) | 1 (≈ 1.26 µM) | 4 (≈ 5.06 µM)
CC[C@H]1OC(=O)[C@H](C)[C@@H](O[C@H]2C[C@@](C)(OC)[C@@H](O)[C@@H](C)O2)[C@H](C)[C@@H](O[C@@H]2O[C@H](C)C[C@@H](N(C)C)[C@H]2O)[C@](C)(O)C[C@@H](C)CN(C)[C@H](C)[C@@H](OC)[C@]1(C)OC | 4 (≈ 5.15 µM) | 16 (≈ 20.6 µM) | 0.12 (≈ 0.154 µM) | 8 (≈ 10.3 µM) | 1 (≈ 1.29 µM) | 2 (≈ 2.57 µM)
CC[C@H]1OC(=O)[C@H](C)[C@@H](O[C@H]2C[C@@](C)(OC)[C@@H](O)[C@@H](C)O2)[C@H](C)[C@@H](O[C@@H]2O[C@H](C)C[C@@H](N(C)C)[C@H]2O)[C@](C)(O)C[C@@H](C)CN(C)[C@H](C)[C@@H](OC)[C@]1(C)O | 1 (≈ 1.31 µM) | 8 (≈ 10.5 µM) | 0.03 (≈ 0.0393 µM) | 1 (≈ 1.31 µM) | 0.03 (≈ 0.0393 µM) | 0.5 (≈ 0.655 µM)
CC[C@H]1OC(=O)[C@H](C)[C@@H](O[C@H]2C[C@@](C)(OC)[C@@H](O)[C@@H](C)O2)[C@H](C)[C@@H](O[C@@H]2O[C@H](C)C[C@@H](N(C)C)[C@H]2O)[C@](C)(O)C[C@@H](C)CN(C)[C@H](C)[C@@H](O)[C@]1(C)OC |  | 4 (≈ 5.24 µM) | 0.03 (≈ 0.0393 µM) | 1 (≈ 1.31 µM) | 0.03 (≈ 0.0393 µM) | 0.25 (≈ 0.328 µM)
CC[C@H]1OC(=O)[C@H](C)[C@@H](O[C@H]2C[C@@](C)(OC)[C@H](O)[C@H](C)O2)[C@H](C)[C@@H](O[C@@H]2O[C@H](C)C[C@H](N(C)C)[C@H]2O)[C@](C)(O)C[C@@H](C)N(C)C[C@H](C)[C@@H](O)[C@]1(C)O | 0.3 (≈ 0.401 µM) | 2 (≈ 2.67 µM) | < 0.06 | 0.3 (≈ 0.401 µM) | < 0.06 | 0.125 (≈ 0.167 µM)
CC[C@H]1OC(=O)[C@H](C)[C@@H](O[C@H]2C[C@@](C)(OC)[C@@H](OC)[C@@H](C)O2)[C@H](C)[C@@H](O[C@@H]2O[C@H](C)C[C@@H](N(C)C)[C@H]2O)[C@](C)(O)C[C@@H](C)N(C)C[C@H](C)[C@@H](OC)[C@]1(C)OC | 2 (≈ 2.53 µM) | 32 (≈ 40.5 µM) | 0.5 (≈ 0.632 µM) | 32 (≈ 40.5 µM) | 4 (≈ 5.06 µM) | 8 (≈ 10.1 µM)
CC[C@H]1OC(=O)[C@H](C)[C@@H](O[C@H]2C[C@@](C)(OC)[C@@H](O)[C@H](C)O2)[C@H](C)[C@@H](O[C@@H]2O[C@H](C)C[C@H](N(C)C)[C@H]2O)[C@](C)(O)C[C@@H](C)CN(C)[C@H](C)[C@@H](O)[C@]1(C)O [AZITHROMYCIN] | 1 (≈ 1.34 µM) | 4 (≈ 5.34 µM) | 0.03 (≈ 0.0401 µM) | 0.5 (≈ 0.668 µM) | < 0.06 | 0.25 (≈ 0.334 µM)
